Experimental data reported in US11339203B2, “Antitumor peptide and use thereof” (TOAGOSEI CO., LTD., priority 2018, dated 2022).
Where two headings read alike, the source gives them in different places. Where no end group is shown, it is not given here.

Columns and labels:
[1] = system: human non-small cell lung cancer cell line (NCI-H2444); assay type: cell-based; details: 48 h
Procedure: (§1) CAKI2 cells were cultured and adjusted to cell count of about 5×10^3 cells per single well of 96-well plate. The amount of medium at this time was made to be 100 μL per well. Next, the 96-well plate was arranged in a CO2 incubator and incubated for about 1 day (21 hours to 24 hours) under conditions of 37° C. and 5% CO2. Subsequently, peptide-containing test media were respectively prepared for each concentration so that the concentration of each sample peptide targeted for evaluation was 12.5 μM and 25 μM followed by supplying to the wells in which the cells targeted for evaluation were cultured (namely, the wells following the above-mentioned incubation) so that the amount of media was 90 μL per well. The 96-well plate was then returned to CO2 incubator followed by incubating for 48 hours under conditions of 37° C. and 5% CO2. The number of wells (n) at each concentration in each peptide addition test group was set to 3. Thus, the values of the results indicated in the following table are the average values of the results respectively obtained for 3 test wells. Cell viability (%) was determined in the manner described below. Following completion of incubation for 48 hours as described above, the medium in each well was replaced with 100 μL of fresh medium not containing peptide followed by further adding a reagent for measuring cell proliferation in the form of “Cell Counting Kit-8” (Dojindo Laboratories) containing “water-soluble tetrazolium salt (WST-8)” as a coloring reagent at 10 μL per well. Subsequently, the 96-well plate was again returned to CO2 incubator and incubated for 1.5 hours to 2 hours under conditions of 37° C. and 5% CO2. Following completion of incubation, cell viability (%) was evaluated using a colorimetric method consisting of recovering the cell culture liquid containing the above-mentioned reagent together with measuring absorbance at wavelength of 450 nm based on reduction of tetrazolium salt (value corrected for absorbance at a wavelength of 650 nm: A450 to A650). More specifically, the cell viability (%) of each test cell line was calculated from the measured absorbance as a relative value based on cell viability of 100% for the measured value (measured absorbance) of the comparison test group that underwent incubation for 48 hours as described above in only medium not containing peptide. Antitumor activity was evaluated for Sample 2 in above-mentioned Test Example 1 targeted at multiple types of human-derived cultured tumor cells. […]

[2] = system: human alveolar epithelial cell carcinoma cell line (A549); assay type: cell-based; details: 48 h
Procedure: as §1

[3] = system: normal human mammary epithelial cells (MCF-12F); assay: in vitro; assay type: cell-based; details: each tumor cell line (CAKI2, PC-3, A2058, H2444, A549) versus MCF-12F; result in words
Procedure: (§2) CAKI2 cells were cultured and adjusted to cell count of about 5×10^3 cells per single well of 96-well plate. The amount of medium at this time was made to be 100 μL per well. Next, the 96-well plate was arranged in a CO2 incubator and incubated for about 1 day (21 hours to 24 hours) under conditions of 37° C. and 5% CO2. Subsequently, peptide-containing test media were respectively prepared for each concentration so that the concentration of each sample peptide targeted for evaluation was 12.5 μM and 25 μM followed by supplying to the wells in which the cells targeted for evaluation were cultured (namely, the wells following the above-mentioned incubation) so that the amount of media was 90 μL per well. The 96-well plate was then returned to CO2 incubator followed by incubating for 48 hours under conditions of 37° C. and 5% CO2. The number of wells (n) at each concentration in each peptide addition test group was set to 3. Thus, the values of the results indicated in the following table are the average values of the results respectively obtained for 3 test wells. Cell viability (%) was determined in the manner described below. […] Following completion of incubation, cell viability (%) was evaluated using a colorimetric method consisting of recovering the cell culture liquid containing the above-mentioned reagent together with measuring absorbance at wavelength of 450 nm based on reduction of tetrazolium salt (value corrected for absorbance at a wavelength of 650 nm: A450 to A650). More specifically, the cell viability (%) of each test cell line was calculated from the measured absorbance as a relative value based on cell viability of 100% for the measured value (measured absorbance) of the comparison test group that underwent incubation for 48 hours as described above in only medium not containing peptide. Antitumor activity was evaluated for Sample 2 in above-mentioned Test Example 1 targeted at multiple types of human-derived cultured tumor cells. […]

in vitro = assay type: cell-based, human; details: human
Procedure: as §2

FIGNLALSDLLAGVAYTANLLLKKRTLRKNDRKKR-NH2 [Sample 2]
Cell Viability (%) ([1]; 12.5 μM): 11%
Cell Viability (%) ([1]; 25 μM): 0.6%
Cell Viability (%) ([2]; 12.5 μM): 25.4%
Cell Viability (%) ([2]; 25 μM): 1.4%
antitumor activity against tumor cells in comparison with normal cells [3]: more potent antitumor activity
viability at 48 h, 12.5 μM (in vitro): 59.6%
viability at 48 h, 25 μM (in vitro): 13.8%
